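These data come from cells grown in 96-well plates and exposed to compound for 48 hours at five concentrations. TGI is the concentration that stops growth completely.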
Tests used:
Assay in all cases: inhibition of tumour cell growth, NCI panel, 48 h
M19-MEL melanoma = test system: M19-MEL melanoma
UACC-62 melanoma = test system: UACC-62 melanoma
SNB-19 CNS = test system: SNB-19 CNS
DLD-1 colon = test system: DLD-1 colon
SN12C renal = test system: SN12C renal
A549 NSCLC = test system: A549 NSCLC
CAKI-1 renal = test system: CAKI-1 renal
NCI-H522 lung = test system: NCI-H522 lung
U251 CNS = test system: U251 CNS
SR leukemia = test system: SR leukemia
OVCAR-8 ovarian = test system: OVCAR-8 ovarian
SF-539 CNS = test system: SF-539 CNS
ACHN renal = test system: ACHN renal
SK-OV-3 ovarian = test system: SK-OV-3 ovarian
MOLT-4 leukemia = test system: MOLT-4 leukemia
NCI-H226 lung = test system: NCI-H226 lung
NCI-H460 lung = test system: NCI-H460 lung
RPMI-8226 leukemia = test system: RPMI-8226 leukemia
DMS 114 small cell lung = test system: DMS 114 small cell lung
HCC-2998 colon = test system: HCC-2998 colon
OVCAR-5 ovarian = test system: OVCAR-5 ovarian
M14 melanoma = test system: M14 melanoma
SF-295 CNS = test system: SF-295 CNS
TK-10 renal = test system: TK-10 renal
LOX IMVI melanoma = test system: LOX IMVI melanoma
HT29 colon = test system: HT29 colon
UO-31 renal = test system: UO-31 renal
LXFL 529 NSCLC = test system: LXFL 529 NSCLC
SK-MEL-2 melanoma = test system: SK-MEL-2 melanoma
SF-268 CNS = test system: SF-268 CNS
EKVX NSCLC = test system: EKVX NSCLC
DMS 273 small cell lung = test system: DMS 273 small cell lung
CCRF-CEM leukemia = test system: CCRF-CEM leukemia
OVCAR-4 ovarian = test system: OVCAR-4 ovarian
HL-60(TB) leukemia = test system: HL-60(TB) leukemia
HCT-116 colon = test system: HCT-116 colon
HOP-62 NSCLC = test system: HOP-62 NSCLC
SW-620 colon = test system: SW-620 colon
UACC-257 melanoma = test system: UACC-257 melanoma
K-562 leukemia = test system: K-562 leukemia
HCT-15 colon = test system: HCT-15 colon
COLO 205 colon = test system: COLO 205 colon
KM12 colon = test system: KM12 colon
HOP-92 NSCLC = test system: HOP-92 NSCLC
OVCAR-3 ovarian = test system: OVCAR-3 ovarian
RXF 393 renal = test system: RXF 393 renal
SNB-78 CNS = test system: SNB-78 CNS
KM20L2 colon = test system: KM20L2 colon
786-0 renal = test system: 786-0 renal
A498 renal = test system: A498 renal
MALME-3M melanoma = test system: MALME-3M melanoma
IGROV1 ovarian = test system: IGROV1 ovarian
XF 498 CNS = test system: XF 498 CNS
NCI-H23 lung = test system: NCI-H23 lung
SK-MEL-28 melanoma = test system: SK-MEL-28 melanoma
SK-MEL-5 melanoma = test system: SK-MEL-5 melanoma
HOP-18 NSCLC = test system: HOP-18 NSCLC
SNB-75 CNS = test system: SNB-75 CNS

Compound: O=C(Nc1cc(Cl)c(Cl)cc1Cl)C(=O)C(C(=O)c1ccc(Cl)c(Cl)c1)C1OC(=O)c2ccccc21 (centres undefined)
- TGI (M19-MEL melanoma): 37.9 µM
- TGI (UACC-62 melanoma): 33.5 µM
- TGI (SNB-19 CNS): 49.8 µM
- TGI (DLD-1 colon): 23.4 µM
- TGI (SN12C renal): 52.3 µM
- TGI (A549 NSCLC): > 100 µM
- TGI (CAKI-1 renal): 46.3 µM
- TGI (NCI-H522 lung): 23.3 µM
- TGI (U251 CNS): 30.9 µM
- TGI (SR leukemia): > 100 µM
- TGI (OVCAR-8 ovarian): 28.5 µM
- TGI (SF-539 CNS): 7.89 µM
- TGI (ACHN renal): 31.7 µM
- TGI (SK-OV-3 ovarian): > 100 µM
- TGI (MOLT-4 leukemia): > 100 µM
- TGI (NCI-H226 lung): 22.7 µM
- TGI (NCI-H460 lung): 10.8 µM
- TGI (RPMI-8226 leukemia): 86.7 µM
- TGI (DMS 114 small cell lung): 39.5 µM
- TGI (HCC-2998 colon): 33.6 µM
- TGI (OVCAR-5 ovarian): 23.6 µM
- TGI (M14 melanoma): 27.7 µM
- TGI (SF-295 CNS): 36.6 µM
- TGI (TK-10 renal): 52 µM
- TGI (LOX IMVI melanoma): 35 µM
- TGI (HT29 colon): 39.3 µM
- TGI (UO-31 renal): 30.6 µM
- TGI (LXFL 529 NSCLC): 22.9 µM
- TGI (SK-MEL-2 melanoma): 28.6 µM
- TGI (SF-268 CNS): 41.8 µM
- TGI (EKVX NSCLC): 58 µM
- TGI (DMS 273 small cell lung): 44.5 µM
- TGI (CCRF-CEM leukemia): 49.5 µM
- TGI (OVCAR-4 ovarian): 77.8 µM
- TGI (HL-60(TB) leukemia): 52 µM
- TGI (HCT-116 colon): 28.8 µM
- TGI (HOP-62 NSCLC): 25.3 µM
- TGI (SW-620 colon): 38.3 µM
- TGI (UACC-257 melanoma): 27.5 µM
- TGI (K-562 leukemia): 63.9 µM
- TGI (HCT-15 colon): 40.3 µM
- TGI (COLO 205 colon): 33.8 µM
- TGI (KM12 colon): 33.6 µM
- TGI (HOP-92 NSCLC): 31.4 µM
- TGI (OVCAR-3 ovarian): 32.6 µM
- TGI (RXF 393 renal): 21.9 µM
- TGI (SNB-78 CNS): > 100 µM
- TGI (KM20L2 colon): 33 µM
- TGI (786-0 renal): 27.3 µM
- TGI (A498 renal): 41.9 µM

Compound: CC1=NN(C(=O)c2ccc(Cl)cc2)C(=O)/C1=C/c1cccc([N+](=O)[O-])c1
- TGI (M19-MEL melanoma): > 100 µM
- TGI (UACC-62 melanoma): > 100 µM
- TGI (SNB-19 CNS): > 100 µM
- TGI (DLD-1 colon): > 100 µM
- TGI (MALME-3M melanoma): > 100 µM
- TGI (SN12C renal): > 100 µM
- TGI (A549 NSCLC): > 100 µM
- TGI (CAKI-1 renal): > 100 µM
- TGI (NCI-H522 lung): > 100 µM
- TGI (U251 CNS): > 100 µM
- TGI (OVCAR-8 ovarian): > 100 µM
- TGI (SF-539 CNS): > 100 µM
- TGI (ACHN renal): > 100 µM
- TGI (SK-OV-3 ovarian): > 100 µM
- TGI (NCI-H460 lung): > 100 µM
- TGI (RPMI-8226 leukemia): > 100 µM
- TGI (IGROV1 ovarian): > 100 µM
- TGI (DMS 114 small cell lung): > 100 µM
- TGI (XF 498 CNS): > 100 µM
- TGI (HCC-2998 colon): > 100 µM
- TGI (OVCAR-5 ovarian): > 100 µM
- TGI (M14 melanoma): > 100 µM
- TGI (SF-295 CNS): > 100 µM
- TGI (TK-10 renal): > 100 µM
- TGI (LOX IMVI melanoma): > 100 µM
- TGI (HT29 colon): > 100 µM
- TGI (UO-31 renal): > 100 µM
- TGI (LXFL 529 NSCLC): > 100 µM
- TGI (SK-MEL-2 melanoma): > 100 µM
- TGI (SF-268 CNS): > 100 µM
- TGI (EKVX NSCLC): > 100 µM
- TGI (CCRF-CEM leukemia): > 100 µM
- TGI (OVCAR-4 ovarian): > 100 µM
- TGI (HL-60(TB) leukemia): > 100 µM
- TGI (HCT-116 colon): > 100 µM
- TGI (HOP-62 NSCLC): > 100 µM
- TGI (NCI-H23 lung): > 100 µM
- TGI (SW-620 colon): > 100 µM
- TGI (UACC-257 melanoma): > 100 µM
- TGI (K-562 leukemia): > 100 µM
- TGI (HCT-15 colon): > 100 µM
- TGI (COLO 205 colon): > 100 µM
- TGI (SK-MEL-28 melanoma): > 100 µM
- TGI (KM12 colon): > 100 µM
- TGI (HOP-92 NSCLC): > 100 µM
- TGI (OVCAR-3 ovarian): > 100 µM
- TGI (SK-MEL-5 melanoma): > 100 µM
- TGI (RXF 393 renal): > 100 µM
- TGI (SNB-78 CNS): > 100 µM
- TGI (KM20L2 colon): > 100 µM
- TGI (786-0 renal): > 100 µM
- TGI (A498 renal): > 100 µM

Compound: COc1ccc(CSc2nc3ccccc3nc2-c2cccs2)cc1
- TGI (SNB-19 CNS): > 100 µM
- TGI (MALME-3M melanoma): > 100 µM
- TGI (SN12C renal): > 100 µM
- TGI (A549 NSCLC): > 100 µM
- TGI (U251 CNS): > 100 µM
- TGI (OVCAR-8 ovarian): > 100 µM
- TGI (SF-539 CNS): > 100 µM
- TGI (ACHN renal): > 100 µM
- TGI (SK-OV-3 ovarian): > 100 µM
- TGI (MOLT-4 leukemia): > 100 µM
- TGI (HOP-18 NSCLC): > 100 µM
- TGI (RPMI-8226 leukemia): > 100 µM
- TGI (DMS 114 small cell lung): > 100 µM
- TGI (XF 498 CNS): > 100 µM
- TGI (M14 melanoma): > 100 µM
- TGI (SF-295 CNS): > 100 µM
- TGI (HT29 colon): > 100 µM
- TGI (UO-31 renal): > 100 µM
- TGI (SF-268 CNS): > 100 µM
- TGI (EKVX NSCLC): > 100 µM
- TGI (DMS 273 small cell lung): > 100 µM
- TGI (SNB-75 CNS): > 100 µM
- TGI (CCRF-CEM leukemia): 76.3 µM
- TGI (OVCAR-4 ovarian): > 100 µM
- TGI (HL-60(TB) leukemia): > 100 µM
- TGI (HCT-116 colon): > 100 µM
- TGI (NCI-H23 lung): > 100 µM
- TGI (UACC-257 melanoma): > 100 µM
- TGI (K-562 leukemia): > 100 µM
- TGI (COLO 205 colon): > 100 µM
- TGI (SK-MEL-28 melanoma): > 100 µM
- TGI (HOP-92 NSCLC): > 100 µM
- TGI (OVCAR-3 ovarian): > 100 µM
- TGI (SNB-78 CNS): > 100 µM
- TGI (786-0 renal): > 100 µM

Compound: CC(C)[C@@H](COC(C)(C)C)N=CN1CCc2c([nH]c3ccccc23)C1
- TGI (UACC-62 melanoma): > 100 µM
- TGI (SNB-19 CNS): > 100 µM
- TGI (DLD-1 colon): > 100 µM
- TGI (SN12C renal): > 100 µM
- TGI (A549 NSCLC): > 100 µM
- TGI (NCI-H522 lung): > 100 µM
- TGI (U251 CNS): > 100 µM
- TGI (OVCAR-8 ovarian): > 100 µM
- TGI (SF-539 CNS): > 100 µM
- TGI (ACHN renal): > 100 µM
- TGI (SK-OV-3 ovarian): > 100 µM
- TGI (MOLT-4 leukemia): > 100 µM
- TGI (NCI-H226 lung): > 100 µM
- TGI (NCI-H460 lung): > 100 µM
- TGI (RPMI-8226 leukemia): > 100 µM
- TGI (IGROV1 ovarian): > 100 µM
- TGI (DMS 114 small cell lung): > 100 µM
- TGI (XF 498 CNS): > 100 µM
- TGI (HCC-2998 colon): > 100 µM
- TGI (OVCAR-5 ovarian): > 100 µM
- TGI (M14 melanoma): > 100 µM
- TGI (SF-295 CNS): > 100 µM
- TGI (TK-10 renal): > 100 µM
- TGI (LOX IMVI melanoma): > 100 µM
- TGI (HT29 colon): > 100 µM
- TGI (UO-31 renal): > 100 µM
- TGI (LXFL 529 NSCLC): > 100 µM
- TGI (SK-MEL-2 melanoma): > 100 µM
- TGI (SF-268 CNS): > 100 µM
- TGI (EKVX NSCLC): > 100 µM
- TGI (DMS 273 small cell lung): > 100 µM
- TGI (SNB-75 CNS): > 100 µM
- TGI (CCRF-CEM leukemia): > 100 µM
- TGI (OVCAR-4 ovarian): > 100 µM
- TGI (HL-60(TB) leukemia): > 100 µM
- TGI (HCT-116 colon): > 100 µM
- TGI (HOP-62 NSCLC): > 100 µM
- TGI (NCI-H23 lung): > 100 µM
- TGI (SW-620 colon): > 100 µM
- TGI (K-562 leukemia): > 100 µM
- TGI (HCT-15 colon): > 100 µM
- TGI (COLO 205 colon): > 100 µM
- TGI (SK-MEL-28 melanoma): > 100 µM
- TGI (KM12 colon): > 100 µM
- TGI (HOP-92 NSCLC): 89.6 µM
- TGI (OVCAR-3 ovarian): > 100 µM
- TGI (SK-MEL-5 melanoma): > 100 µM
- TGI (RXF 393 renal): > 100 µM
- TGI (SNB-78 CNS): > 100 µM
- TGI (KM20L2 colon): > 100 µM
- TGI (786-0 renal): > 100 µM
- TGI (A498 renal): > 100 µM

Reference: PubChem BioAssay (NCI)
